Reference: EP1849775A1, “Cycloalkane-substituted pyrazoline compounds, their preparation and use as medicaments” (LABORATORIOS DEL DR. ESTEVE, S.A., priority 2006, dated 2007)

Assays:
cannabinoid receptors = test: Mouse tetrad model, antagonistic activity against Win 55212-2; assay type: in vivo; conditions: Male NMRI mice; substance injected intravenously 5 minutes before intravenous 1.25 mg/kg Win-55,212; tetrad parameter not specified
From the text: II. In-vivo bioassay system for determination of cannabinoid activity
Substances with affinity for cannabinoid receptors are known to produce a wide range of pharmacological effects. It is also known that intravenous administration of a substance with affinity for cannabinoid receptors in mice produces analgesia , hypothermia, sedation and catalepsy. Individually, none of these effects can be considered as proof that a tested substance has affinity for cannabinoid-receptors, since all of these effects are common for various classes of centrally active agents. However, substances, which show all of these effects, i.e. substances that are active in this so-called tetrad model are considered to have affinity for the cannabinoid receptors. It has further been shown that cannabinoid receptor antagonists are higly effective in blocking the effects of a cannabinoid agonist in the mouse tetrad model.
The tetrad model is described, for example, in the publication of A. C. Howlett et al, International Union of Pharmacology XXVII. […]
Before testing in the behavioral procedures given below, mice are acclimatized to the experimental setting. Pre-Treatment control values are determined for analgesia hot plate latency (in seconds), rectal temperature, sedation and catalepsy.
In order to determine the agonistic activty of the substance to be tested, the mice are injected intravenously with the substance to be tested or the vehicle alone. 15 minutes after injection, latency in hot plate analgesia is measured. Rectal temperature, sedation and catalepsy are measured 20 minutes after injection.
In order to determine the antagonistic activity the identical procedure is used as for the determination of the agonistic effects, but with the difference that the substance to be evaluated for its antagonistic activity is injectected 5 minutes before the intravenous injection of 1.25 mg/kg Win-55,212 a known cannabinoid-receptor agonist. […]
The degree of analgesia is calculated from the formula: %MPE of Analgesia = (PT-B)/(PC-B) × 100 [formula] […]

CB1-Receptor = target: T1, CB1-Receptor (Homo sapiens, UniProt P21554); test: In-vitro determination of affinity to CB1 receptor (radioligand binding); conditions: Radiologand:[^3H]-CP55940, transfected human CB1 receptors
T1 construct: purchased Receptor Biology, Inc
T1 sequence (P21554 whole entry): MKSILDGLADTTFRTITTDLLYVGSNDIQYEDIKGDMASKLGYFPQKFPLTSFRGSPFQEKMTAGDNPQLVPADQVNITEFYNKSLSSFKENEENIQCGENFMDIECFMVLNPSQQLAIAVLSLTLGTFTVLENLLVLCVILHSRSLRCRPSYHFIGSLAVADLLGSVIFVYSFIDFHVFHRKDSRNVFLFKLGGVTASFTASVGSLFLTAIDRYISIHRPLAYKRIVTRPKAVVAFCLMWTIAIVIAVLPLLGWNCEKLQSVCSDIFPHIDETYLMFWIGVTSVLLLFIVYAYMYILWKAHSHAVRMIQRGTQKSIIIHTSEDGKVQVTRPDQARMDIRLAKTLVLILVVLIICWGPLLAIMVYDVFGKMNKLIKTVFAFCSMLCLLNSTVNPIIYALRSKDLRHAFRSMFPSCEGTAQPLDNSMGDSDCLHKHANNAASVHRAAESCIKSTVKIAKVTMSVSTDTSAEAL
Method: I. In-vitro determination of affinity to CB1/CB2-Receptors
The in-vitro determination of the affinity of the inventive quaternary ammonium salts of substituted pyrazoline compounds to CB1/CB2-Rezeptors is carried out as described in the publication of Ruth A. Ross, Heather C. Brockie et al., "Agonist-inverse agonist characterization at CB1 and CB2 cannabinoid receptors of L-759633, L759656 and AM630", British Journal of Pharmacology, 126, 665-672, (1999), whereby the transfected human CB1 and CB2 receptors of Receptor Biology, Inc. are used. The radioligand used for both receptors is [3H]-CP55940. The respective parts of the description are hereby incorporated by reference and forms part of the present disclosure.
The affinity of the inventive substituted pyrazoline compounds to CB1/CB2 receptors was determined as described above.

Row | SMILES | Antagonistic Effect in (%) (cannabinoid receptors) | IC50 (CB1-Receptor)
1 | O=C(NC1CCCCCC1)C1=NN(c2ccc(Cl)cc2Cl)C(c2ccc(Cl)cc2)C1 (stereo not drawn) [Example 1, 5-(4-chlorophenyl)-N-cycloheptyl-1-(2,4-dichlorophenyl)-4,5-dihydro-1H-pyrazole-3-carboxamide] | 84% | 0.1 µM
2 | O=C(NC1CCCCCC1)C1=NN(c2ccc(Cl)cc2Cl)[C@@H](c2ccc(Cl)cc2)C1 [Example 2, (R)-5-(4-chlorophenyl)-N-cycloheptyl-1-(2,4-dichlorophenyl)-4,5-dihydro-1H-pyrazole-3-carboxamide] | 94% | 0.0158 µM
3 | O=C(NC1CCCCCCC1)C1=NN(c2ccc(Cl)cc2Cl)C(c2ccc(Cl)cc2)C1 (stereo not drawn) [Example 5, 5-(4-chlorophenyl)-N-cyclooctyl-1-(2,4-dichlorophenyl)-4,5-dihydro-1H-pyrazole-3-carboxamide] | 62±5% | 0.0562 µM
